Test results: the NIST ThermoML archive (doi:10.1016/j.fluid.2014.02.006)
Numbers after ± are expanded uncertainties.

Columns and labels:
[1] = 298.15 K; 101.33 kPa; Liquid; Vibrating tube method
[2] = refractive index (Na D-line) (dimensionless); details: 298.15 K; 101.33 kPa; Liquid; Standard Abbe refractometry

| mass density [1] | refractive index [2] | SMILES |
| --- | --- | --- |
| 1049.68 ± 0.14 kg/m3 | 1.43851 ± 0.00032 | OCCCO [propan-1,3-diol] |
| 781.18 ± 0.15 kg/m3 | 1.3752 ± 0.00032 | CC(C)O [propan-2-ol] |

| SMILES | mass density [1] | refractive index [2] |
| --- | --- | --- |
| O [water] |  | 1.33237 ± 0.00032 |
